The first assay deals with T1, VLA-4 (Homo sapiens, UniProt P05556+P13612).
T1 construct: host or cells: Jurkat clone E6-1
T1 sequence (P13612 34-1032): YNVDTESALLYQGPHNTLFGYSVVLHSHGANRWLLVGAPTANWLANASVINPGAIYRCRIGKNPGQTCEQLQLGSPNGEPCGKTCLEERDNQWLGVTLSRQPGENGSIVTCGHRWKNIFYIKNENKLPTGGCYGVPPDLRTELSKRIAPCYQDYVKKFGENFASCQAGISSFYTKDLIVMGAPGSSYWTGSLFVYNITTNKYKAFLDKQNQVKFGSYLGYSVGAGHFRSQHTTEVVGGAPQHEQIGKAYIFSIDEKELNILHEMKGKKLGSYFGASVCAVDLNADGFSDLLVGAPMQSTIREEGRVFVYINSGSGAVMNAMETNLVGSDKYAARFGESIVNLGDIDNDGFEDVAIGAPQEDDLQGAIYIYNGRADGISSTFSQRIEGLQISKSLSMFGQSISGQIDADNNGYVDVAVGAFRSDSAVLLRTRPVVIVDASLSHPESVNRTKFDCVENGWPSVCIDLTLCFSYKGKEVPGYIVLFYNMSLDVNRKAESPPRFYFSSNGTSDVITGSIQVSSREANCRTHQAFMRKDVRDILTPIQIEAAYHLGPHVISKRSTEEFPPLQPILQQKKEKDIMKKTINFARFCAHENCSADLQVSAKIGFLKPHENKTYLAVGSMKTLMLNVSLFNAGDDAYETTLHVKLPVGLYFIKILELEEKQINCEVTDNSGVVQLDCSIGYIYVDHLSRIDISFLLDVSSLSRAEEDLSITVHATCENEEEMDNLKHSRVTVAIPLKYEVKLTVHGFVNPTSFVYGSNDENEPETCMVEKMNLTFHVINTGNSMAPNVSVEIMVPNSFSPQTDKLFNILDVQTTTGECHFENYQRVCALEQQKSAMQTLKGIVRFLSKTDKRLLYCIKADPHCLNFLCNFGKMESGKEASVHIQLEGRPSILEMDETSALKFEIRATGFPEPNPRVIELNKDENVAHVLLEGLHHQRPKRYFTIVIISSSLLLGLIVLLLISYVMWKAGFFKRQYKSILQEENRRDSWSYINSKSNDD
T1 sequence (P05556 21-798): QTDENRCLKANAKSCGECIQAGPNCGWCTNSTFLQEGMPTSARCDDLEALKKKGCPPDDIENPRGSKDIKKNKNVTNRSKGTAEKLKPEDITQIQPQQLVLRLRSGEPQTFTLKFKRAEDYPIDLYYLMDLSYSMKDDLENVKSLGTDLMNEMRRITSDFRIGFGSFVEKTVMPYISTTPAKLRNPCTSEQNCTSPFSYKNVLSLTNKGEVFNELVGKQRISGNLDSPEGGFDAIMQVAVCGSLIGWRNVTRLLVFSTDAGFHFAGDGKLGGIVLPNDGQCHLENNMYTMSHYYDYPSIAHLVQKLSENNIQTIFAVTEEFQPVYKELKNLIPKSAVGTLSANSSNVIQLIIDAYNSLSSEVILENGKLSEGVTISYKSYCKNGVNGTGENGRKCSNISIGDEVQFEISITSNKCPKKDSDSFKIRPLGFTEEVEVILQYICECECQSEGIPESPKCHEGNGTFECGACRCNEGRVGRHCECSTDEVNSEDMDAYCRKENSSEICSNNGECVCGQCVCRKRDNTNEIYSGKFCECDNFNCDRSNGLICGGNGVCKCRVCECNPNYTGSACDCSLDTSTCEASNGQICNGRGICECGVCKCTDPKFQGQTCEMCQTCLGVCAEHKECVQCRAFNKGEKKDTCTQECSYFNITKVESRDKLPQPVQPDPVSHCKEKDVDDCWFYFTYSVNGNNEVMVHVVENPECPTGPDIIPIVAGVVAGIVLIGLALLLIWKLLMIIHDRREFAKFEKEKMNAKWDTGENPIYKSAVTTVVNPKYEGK
Put plainly: Adhesion of Jurkat cells to immobilized VCAM-1 (domains 1-3). The conditions noted are these: adhesion of CFSE-labeled Jurkat cells to recombinant human VCAM-1 (domains 1-3) coated plates; compounds as yielded by solid phase synthesis, purity about 40-90%. Set-up: scale not given here. The class given is cell-based. Here is the method:
In Vitro Assay: Adhesion of Jurkat Cells to Immobilized VCAM-1 (Domains 1-3).
Preparation of Fluorescence Labeled Jurkat Cells:
Jurkat cells (American Type Culture Collection, Clone E6-1, ATCC TIB-152) were cultured in RPMI 1640 medium (Nikken Bio Medical Laboratory, CM1101) supplemented with 10% fetal bovine serum (Hyclone, A-1119-L), 100 U/ml penicilin (Gibco BRL, 15140-122) and 100 μg/ml streptomycin (Gibco BRL, 15140-122) in a humidified incubator at 37° C. with 5% CO2.
Jurkat cells were incubated with phosphate balanced solution (PBS, Nissui, 05913) containing 25 μM of 5(-and-6)-carboxyfluorescein diacetate, succinimidyle ester (CFSE, Dojindo Laboratories, 345-06441) for 20 min at room temperature while gently swirling every 5 min. After centrifugation at 1000 rpm for 5 min, the cell pellet was resuspended with adhesion assay buffer at a cell density of 2×10^6 cells/ml. The adhesion assay buffer was composed of 24 mM Tris-HCl (pH 7.4), 137 mM NaCl, 27 mM KCl, 4 mM glucose, 0.1% bovine serum albumin (BSA, Sigma, A9647) and 2 mM MnCl2.
Preparation of VCAM-1 (Extracellular Domains 1-3):
Complementary DNA (cDNA) encoding 7-domain form of VCAM-1 (GenBank accession #M60335) was obtained using Rapid-Screen™ cDNA library panels (OriGene Technologies, Inc) at Takara Gene Analysis Center (Shiga, Japan). The primers used were 5′-CCAAGGCAGAGTACGCAAAC-3′ (sence) and 5′-TGGCAGGTATTATTAAGGAG-3′ (antisense). PCR amplification of the 3-domain VCAM-1 cDNA was perform using Pfu DNA polymerase (Stratagene) with the following sets of primers: (U-VCAMd1-3) 5′-CCATATGGTACCTGATCAATTTAAAATCGAGACCACCCCAGAA-3′; (L-VCAMd1-3) 5′-CCATATAGCAATCCTAGGTCCAGGGGAGATCTCAACAGTAAA-3′. PCR cycle was 94° C. for 45 sec, 55° C. for 45 sec, 72° C. for 2 min, repeating 15 cycles. After the purification of the PCR product, the fragment was digested with KpnI-AvrII. The digested fragment was ligated into pBluescript IISK(−) (Strategene), which was linealized by digesting with KpnI-XhoI. The ligation was followed by transformation to a Dam/Dcm methylase-free E. coli strain SCS110 (Strategene) to create the donor plasmid pH7. To direct VCAM-1 molecule into the insect cell secretory pathway, the VCAM-1 coding sequence was fused to signal peptide sequence of honeybee melittin. The resulting melittin-VCAM fusion was placed in correct orientation to the baculoviris polyhedrin promoter. Baculovirus transfer vector containing first 3-domain form VCAM-1 (pH10) was constructed by ligation of 0.9 kb fragment from AvrII/Klenow/BclI digests of pH7 into SalI/Klenow/BamHI digests of pMelBacB (Invitrogen). Recombinant baculovirus was generated by using Bac-N-Blue™ Transfection kit (Invitrogen) according to the manufacture's instruction. The recombinant virus was amplified by infection to High-Five™ insect cells for 5-6 days, and virus titer was determined by plaque assay.
High-Five™ insect cells were pelleted in a 225 ml conical tube by centrifugation at 1000 rpm for 5 min After discarding the supernatant, the pellet was resuspended in 1.5×10^9 pfu (MOI=5) of high-titer virus solution, followed by incubation for 1.5 hours at room temperature. The cells were pelleted again and washed once in fresh Express Five™ serum free medium. The cells were pelleted again and finally, resuspended in 200 ml of fresh Express Five™ medium, transferred to a 1,000 ml shaker flask, and incubated in a shaker at 27° C., 130 rpm, for 48 hours before the culture supernatant was collected. The purification of 3-domain form of VCAM-1 from the culture supernatant was performed by one-step anion exchange chromatography. Protein concentration was determined by using Coomassie protein assay reagent (Pierce) according to the manufacture's instruction.
Preparation of Microtiter Plates:
Recombinant human VCAM-1 (extracellular domains 1-3) was dissolved at 0.5 μg/ml in PBS. […]
On to `COC(=O)c1ccccc1S(=O)(=O)N1CCCC(C(=O)N[C@@H](Cc2ccc(-c3ccc(OC)cc3)cc2)C(=O)O)C1` (stereo partly shown) [Example 1.77], for which the IC50 entry is reported as “C-D”. Take `Cc1ccc(S(=O)(=O)N2CCCC(C(=O)N[C@@H](Cc3ccc(-c4ccc(Cl)cc4Cl)cc3)C(=O)O)C2)cc1` (stereo partly shown) [Example 1.94]: the IC50 result is given as “C-D”. For the compound `Cc1cc(C)c(OC(=O)N2CCCC(C(=O)N[C@@H](Cc3ccc(-c4ccccc4)cc3)C(=O)O)C2)c(C)c1` (stereo partly shown) [Example 1.15], the half-maximal inhibitory concentration (IC50) result is listed as “C-D”. With `CN(Cc1ccccc1)c1ncnc(N2CCCC(C(=O)N[C@@H](Cc3ccc(-c4cc(Cl)ccc4Cl)cc3)C(=O)O)C2)c1F` (stereo partly shown) [Example 2.36], the concentration for half-maximal inhibition (IC50) result is on record as “C-D”. Same read-out and setting: with `COc1ccc(-c2ccc(C[C@H](NC(=O)C3CCCN(S(=O)(=O)c4ccc5ccccc5c4)C3)C(=O)O)cc2)cc1` (stereo partly shown) [Example 1.78] the entry was “C-D”. As to `O=C(N[C@@H](Cc1ccc(-c2ccc(Cl)cc2Cl)cc1)C(=O)O)C1CCCN(S(=O)(=O)c2cc(Cl)cc(Cl)c2)C1` (stereo partly shown) [Example 1.102], the IC50 result is “C-D”.

In the case of `Cc1ccc(-c2ccc(C[C@H](NC(=O)C3CCCN(c4ncnc(N5CCCCC5)c4F)C3)C(=O)O)cc2)cc1` (stereo partly shown) [Example 2.6], the half-inhibitory concentration (IC50) entry was “C-D”. On the same count and under the same terms, with `CCCCN(C)c1ncnc(N2CCCC(C(=O)N[C@@H](Cc3ccc(-c4ccc(C)cc4)cc3)C(=O)O)C2)c1F` (stereo partly shown) [Example 2.13] the entry was “C-D”; with `Cc1ccc(-c2ccc(C[C@H](NC(=O)C3CCCN(c4ncnc(NC5Cc6ccccc6C5)c4F)C3)C(=O)O)cc2)cc1` (stereo partly shown) [Example 2.11], “C-D”. As for `COc1ccc(-c2ccc(C[C@H](NC(=O)C3CCCN(S(=O)(=O)CC45CCC(CC4=O)C5(C)C)C3)C(=O)O)cc2)cc1` (stereo partly shown) [Example 1.75], the half-maximal inhibitory concentration (IC50) result is “C-D”. As for `CCCNc1ncnc(N2CCCC(C(=O)N[C@@H](Cc3ccc(-c4ccc(C)cc4)cc3)C(=O)O)C2)c1F` (stereo partly shown) [Example 2.10], the half-inhibitory concentration (IC50) result is “C-D”.

For the compound `COc1ccc(-c2ccc(C[C@H](NC(=O)C3CCCN(c4ncnc(N5CCCCC5)c4F)C3)C(=O)O)cc2)cc1` (stereo partly shown) [Example 2.16], the IC50 entry was “C-D”.

For `Cc1ccccc1-c1ccc(C[C@H](NC(=O)C2CCCN(c3ncnc(NCCN4CCCC4)c3F)C2)C(=O)O)cc1` (stereo partly shown) [Example 2.32], the half-inhibitory concentration (IC50) entry is “C-D”. The same measure, in the same setting: with `Cc1cc(Cl)c(CC(=O)N2CCCC(C(=O)N[C@@H](Cc3ccc(-c4ccccc4)cc3)C(=O)O)C2)c(Cl)c1` (stereo partly shown) [Example 1.12] the entry was “C-D”. Same read-out and setting: the same measure for `Cc1ccc(-c2ccc(C[C@H](NC(=O)C3CCCN(S(=O)(=O)c4c(Cl)cccc4Cl)C3)C(=O)O)cc2)cc1` (stereo partly shown) [Example 1.69]: “C-D”; for `Cc1ccc(-c2ccc(C[C@H](NC(=O)C3CCCN(S(=O)(=O)Cc4ccccc4)C3)C(=O)O)cc2)cc1` (stereo partly shown) [Example 1.73]: “C-D”. Take `Cc1ccc(-c2ccc(C[C@H](NC(=O)C3CCCN(C(=O)c4ccccc4Cl)C3)C(=O)O)cc2)cc1` (stereo partly drawn) [Example 1.2, (2S)-2-({[1-(2-chlorobenzoyl)-3-piperidinyl]carbonyl}amino)-3-(4′-methyl[1,1′-biphenyl]-4-yl)propanoic acid]: the half-inhibitory concentration (IC50) result is given as “C-D”. Same read-out and setting: with `COc1ccc(Cl)cc1S(=O)(=O)N1CCCC(C(=O)N[C@@H](Cc2ccc(-c3ccc(C)cc3)cc2)C(=O)O)C1` (stereo partly shown) [Example 1.72] the entry was “C-D”; with `Cc1ccccc1-c1ccc(C[C@H](NC(=O)C2CCCN(c3ncnc(NC4CCCCC4)c3F)C2)C(=O)O)cc1` (stereo partly shown) [Example 2.25], “C-D”.

`Cc1ccc(-c2ccc(C[C@H](NC(=O)C3CCCN(c4ncnc(N(C)Cc5ccccc5)c4F)C3)C(=O)O)cc2)cc1` (stereo partly shown) [Example 2.8]: the IC50 entry is recorded as “C-D”.

Take `COc1ccc(Cl)cc1S(=O)(=O)N1CCCC(C(=O)N[C@@H](Cc2ccc(-c3ccccc3)cc2)C(=O)O)C1` (stereo partly shown) [Example 1.62]: the half-inhibitory concentration (IC50) entry is “C-D”.

Staying with this assay, now noted: adhesion of CFSE-labeled Jurkat cells to recombinant human VCAM-1 (domains 1-3) coated plates; compounds as yielded by solid phase synthesis, purity about 40-90%; read-out: IC50.
Regarding `CCCNc1ncnc(N2CCCC(C(=O)N[C@@H](Cc3ccc(-c4ccccc4OC)cc3)C(=O)O)C2)c1F` (stereo partly shown) [Example 2.55], the half-inhibitory concentration (IC50) was ≤ 0.5 µM. For the compound `O=C(N[C@@H](Cc1ccc(NC(=O)N2CCOCC2)cc1)C(=O)O)C1CCCN(C(=O)Nc2ccccc2F)C1` (stereo partly shown) [Example 4.61], the IC50 was in the range of 0.5 to 2 µM. On to `O=C(N[C@@H](Cc1ccc(NC(=O)N2CCOCC2)cc1)C(=O)O)C1CCCN(c2ncnc(N3CCCCCC3)c2F)C1` (stereo partly shown) [Example 5.21], for which the 50% inhibitory concentration (IC50) lay within 0.5 to 2 µM. With `CN1CCN(C(=O)Nc2ccc(C[C@H](NC(=O)C3CCCN(c4ncnc(NCC5CCNCC5)c4F)C3)C(=O)O)cc2)CC1` (stereo partly shown) [Example 5.32], the half-inhibitory concentration (IC50) was 0.5 to 2 µM. On to `O=C(N[C@@H](Cc1ccc(NC(=O)N2CCCCC2)cc1)C(=O)O)C1CCCN(S(=O)(=O)Cc2ccccc2)C1` (stereo partly shown) [Example 4.7], for which the IC50 fell in the range of 0.5 to 2 µM. The same measure, in the same setting: the same measure for `CS(=O)(=O)N1CCCC(C(=O)N[C@@H](Cc2ccc(NC(=O)N3CCN(C(c4ccccc4)c4ccccc4)CC3)cc2)C(=O)O)C1` (stereo partly shown) [Example 4.31]: 0.5 to 2 µM; for `Cc1ccc(S(=O)(=O)N2CCCC(C(=O)N[C@@H](Cc3ccc(-c4ccccc4C)cc3)C(=O)O)C2)cc1` (stereo partly shown) [Example 1.85]: 0.5 to 2 µM; for `CN1CCN(C(=O)Nc2ccc(C[C@H](NC(=O)C3CCCN(c4ncnc(N5CCCC5)c4F)C3)C(=O)O)cc2)CC1` (stereo partly shown) [Example 5.13]: 2 to 10 µM.

`COc1ccccc1C(=O)N1CCCC(C(=O)N[C@@H](Cc2ccc(-c3ccc(Cl)cc3Cl)cc2)C(=O)O)C1` (stereo partly shown) [Example 1.46]: the IC50 lay within 2 to 10 µM.

For the compound `O=C(N[C@@H](Cc1ccc(NC(=O)N2CCN(c3ccccc3)CC2)cc1)C(=O)O)C1CCCN(c2ncnc(NCCc3ccccc3)c2F)C1` (stereo partly shown) [Example 5.26], the half-maximal inhibitory concentration (IC50) fell in the range of 2 to 10 µM. Turning to `Cc1ccc(S(=O)(=O)N2CCCC(C(=O)N[C@@H](Cc3ccc(NC(=O)N4CCN(c5ccccc5)CC4)cc3)C(=O)O)C2)cc1` (stereo partly shown) [Example 4.46], the half-maximal inhibitory concentration (IC50) is ≤ 0.5 µM. As for `COC(=O)c1ccccc1S(=O)(=O)N1CCCC(C(=O)N[C@@H](Cc2ccc(-c3ccccc3C)cc2)C(=O)O)C1` (stereo partly shown) [Example 1.86], the IC50 was 2 to 10 µM. Turning to `Cc1ccc(C(=O)N2CCCC(C(=O)N[C@@H](Cc3ccc(-c4ccccc4C)cc3)C(=O)O)C2)cc1` (stereo partly shown) [Example 1.32], the concentration for half-maximal inhibition (IC50) lay in the range of 2 to 10 µM. Take `CN(Cc1ccccc1)c1ncnc(N2CCCC(C(=O)N[C@@H](Cc3ccc(NC(=O)N4CCOCC4)cc3)C(=O)O)C2)c1F` (stereo partly shown) [Example 5.45]: the IC50 lay in the range of 0.5 to 2 µM. On the same count and under the same terms, the same measure for `COc1ccccc1NC(=O)N1CCCC(C(=O)N[C@@H](Cc2ccc(NC(=O)N3CCCCC3)cc2)C(=O)O)C1` (stereo partly shown) [Example 4.54]: 0.5 to 2 µM; for `O=C(N[C@@H](Cc1ccc(NC(=O)N2CCOCC2)cc1)C(=O)O)C1CCCN(C(=O)c2ccc(OC(F)(F)F)cc2)C1` (stereo partly shown) [Example 4.13]: 0.5 to 2 µM; for `COc1ccc(S(=O)(=O)N2CCCC(C(=O)N[C@@H](Cc3ccc(NC(=O)N4CCOCC4)cc3)C(=O)O)C2)cc1OC` (stereo partly shown) [Example 4.34]: ≤ 0.5 µM. Same read-out and setting: with `O=C(N[C@@H](Cc1ccc(NC(=O)N2CCOCC2)cc1)C(=O)O)C1CCCN(C(=O)Cc2cccs2)C1` (stereo partly shown) [Example 4.25] the figure was ≤ 0.5 µM; with `CN1CCN(C(=O)Nc2ccc(C[C@H](NC(=O)C3CCCN(C(=O)NCc4ccccc4)C3)C(=O)O)cc2)CC1` (stereo partly shown) [Example 4.62], 0.5 to 2 µM.

For the origin of these results see US6794386B2, “β-amino acid compounds as integrin antagonists” (Bayer Aktiengesellschaft, priority 2000, dated 2004).
